Assay results as given in PubChem BioAssay (NCI).
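Here, GI50 denotes the concentration required for 50% inhibition of growth. TGI: concentration producing complete growth inhibition.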

Experiments:
Assay in all cases: growth of human tumour cells (NCI), 384-well format
OVCAR-3 ovarian = tested on: OVCAR-3 ovarian
MOLT-4 leukemia = tested on: MOLT-4 leukemia
COLO 205 colon = tested on: COLO 205 colon
HCT-116 colon = tested on: HCT-116 colon
786-0 renal = tested on: 786-0 renal
RPMI-8226 leukemia = tested on: RPMI-8226 leukemia
SK-MEL-5 melanoma = tested on: SK-MEL-5 melanoma
CAKI-1 renal = tested on: CAKI-1 renal
NCI-H522 lung = tested on: NCI-H522 lung
SK-OV-3 ovarian = tested on: SK-OV-3 ovarian
K-562 leukemia = tested on: K-562 leukemia
MDA-MB-435 melanoma = tested on: MDA-MB-435 melanoma
SN12C renal = tested on: SN12C renal
HOP-62 NSCLC = tested on: HOP-62 NSCLC
OVCAR-4 ovarian = tested on: OVCAR-4 ovarian
SW-620 colon = tested on: SW-620 colon
T-47D breast = tested on: T-47D breast
A498 renal = tested on: A498 renal
KM12 colon = tested on: KM12 colon
ACHN renal = tested on: ACHN renal
NCI-H322M lung = tested on: NCI-H322M lung
SK-MEL-2 melanoma = tested on: SK-MEL-2 melanoma
HCC-2998 colon = tested on: HCC-2998 colon
HCT-15 colon = tested on: HCT-15 colon
LOX IMVI melanoma = tested on: LOX IMVI melanoma
SF-268 CNS = tested on: SF-268 CNS
A549 NSCLC = tested on: A549 NSCLC
IGROV1 ovarian = tested on: IGROV1 ovarian

C=CC(=O)N1CCN(c2nc(OC[C@@H]3CCCN3C)nc3c2CCN(c2cccc4cccc(C)c24)C3)C[C@@H]1CC#N
GI50 (OVCAR-3 ovarian): 362 nM
TGI (OVCAR-3 ovarian): 1360 nM
GI50 (MOLT-4 leukemia): 160 nM
TGI (MOLT-4 leukemia): 299 nM
GI50 (COLO 205 colon): 1230 nM
TGI (COLO 205 colon): 2490 nM
GI50 (HCT-116 colon): 526 nM
TGI (HCT-116 colon): 1740 nM
GI50 ([…]-0 renal): 705 nM
TGI (786-0 renal): 1990 nM
GI50 (RPMI-8226 leukemia): 193 nM
TGI (RPMI-8226 leukemia): 377 nM
GI50 (SK-MEL-5 melanoma): 1500 nM
TGI (SK-MEL-5 melanoma): 2840 nM
GI50 (CAKI-1 renal): 422 nM
TGI (CAKI-1 renal): 1430 nM
GI50 (NCI-H522 lung): 343 nM
TGI (NCI-H522 lung): 1390 nM
GI50 (SK-OV-3 ovarian): 540 nM
TGI (SK-OV-3 ovarian): 1860 nM
GI50 (K-562 leukemia): 918 nM
TGI (K-562 leukemia): 2130 nM
GI50 (MDA-MB-435 melanoma): 1220 nM
TGI (MDA-MB-435 melanoma): 2480 nM
GI50 (SN12C renal): 1240 nM
TGI (SN12C renal): 2500 nM
GI50 (HOP-62 NSCLC): < 10 nM
TGI (HOP-62 NSCLC): 1120 nM
GI50 (OVCAR-4 ovarian): 465 nM
TGI (OVCAR-4 ovarian): 1690 nM
GI50 (SW-620 colon): 1310 nM
TGI (SW-620 colon): 2620 nM
GI50 (T-47D breast): 637 nM
TGI (T-47D breast): 2010 nM
GI50 (A498 renal): 485 nM
TGI (A498 renal): 1700 nM
GI50 (KM12 colon): 1060 nM
TGI (KM12 colon): 2260 nM
GI50 (ACHN renal): 350 nM
TGI (ACHN renal): 1600 nM
GI50 (NCI-H322M lung): 1440 nM
TGI (NCI-H322M lung): 2760 nM
GI50 (SK-MEL-2 melanoma): 194 nM
TGI (SK-MEL-2 melanoma): 595 nM
GI50 (HCC-2998 colon): 1230 nM
TGI (HCC-2998 colon): 2490 nM
GI50 (HCT-15 colon): 1010 nM
TGI (HCT-15 colon): 2190 nM
GI50 (LOX IMVI melanoma): 1590 nM
TGI (LOX IMVI melanoma): 2950 nM
GI50 (SF-268 CNS): 495 nM
TGI (SF-268 CNS): 1670 nM
GI50 (A549 NSCLC): 1310 nM
TGI (A549 NSCLC): 2610 nM
GI50 (IGROV1 ovarian): 1390 nM
TGI (IGROV1 ovarian): 2700 nM
